{"source": "patent US9012398B2", "about": "“Acylated exendin-4 compounds” (priority 2006, dated 2015)", "target": "T1, human GLP-1 receptor (Homo sapiens, UniProt P43220)", "T1 construct": "expressed in transfected cells; host or cells: BHK cells, clone BHK-467-12A; plasma membrane preparation", "T1 sequence (P43220 24-463)": "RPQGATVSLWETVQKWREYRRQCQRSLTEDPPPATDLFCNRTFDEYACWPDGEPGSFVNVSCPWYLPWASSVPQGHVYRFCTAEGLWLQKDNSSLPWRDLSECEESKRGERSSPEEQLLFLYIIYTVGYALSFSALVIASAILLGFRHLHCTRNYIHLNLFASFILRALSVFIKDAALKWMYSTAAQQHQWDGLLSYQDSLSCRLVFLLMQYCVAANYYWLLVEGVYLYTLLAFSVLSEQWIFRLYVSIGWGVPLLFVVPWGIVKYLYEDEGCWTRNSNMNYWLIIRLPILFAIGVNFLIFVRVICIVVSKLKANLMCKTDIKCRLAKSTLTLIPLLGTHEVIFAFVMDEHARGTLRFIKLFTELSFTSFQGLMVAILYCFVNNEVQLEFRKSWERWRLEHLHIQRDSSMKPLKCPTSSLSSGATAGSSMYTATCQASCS", "assay": "Functional receptor assay: cAMP formation in plasma membranes of BHK cells expressing the cloned human GLP-1 receptor (GLP1cAMPma)", "format": "biochemical", "procedure": "The term “insulinotropic agent” as used herein means a compound which is an agonist of the human GLP-1 receptor, i.e. a compound which stimulates the formation of cAMP in a suitable medium containing the human GLP-1 receptor (one such medium disclosed below). The potency of an insulinotropic agent is determined by calculating the EC50 value from the dose-response curve as described below.\nThe cells were washed twice in phosphate buffered saline and harvested with Versene. Plasma membranes were prepared from the cells by homogenisation with an Ultraturrax in buffer 1 (20 mM HEPES-Na, 10 mM EDTA, pH 7.4). The homogenate was centrifuged at 48,000×g for 15 min at 4° C. The pellet was suspended by homogenization in buffer 2 (20 mM HEPES-Na, 0.1 mM EDTA, pH 7.4), then centrifuged at 48,000×g for 15 min at 4° C. The washing procedure was repeated one more time. The final pellet was suspended in buffer 2 and used immediately for assays or stored at −80° C.\nThe functional receptor assay was carried out by measuring cyclic AMP (cAMP) as a response to stimulation by the insulinotropic agent. cAMP formed was quantified by the AlphaScreen™ cAMP Kit (Perkin Elmer Life Sciences). Incubations were carried out in half-area 96-well microtiter plates in a total volume of 50 μL buffer 3 (50 mM Tris-HCl, 5 mM HEPES, 10 mM MgCl2, pH 7.4) and with the following additions: 1 mM ATP, 1 μM GTP, 0.5 mM 3-isobutyl-1-methylxanthine (IBMX), 0.01% Tween-20, 0.1% BSA, 6 μg membrane preparation, 15 μg/mL acceptor beads, 20 μg/mL donor beads preincubated with 6 nM biotinyl-cAMP. […] GTP was freshly prepared for each experiment. The plate was incubated in the dark with slow agitation for three hours at room temperature followed by counting in the Fusion™ instrument (Perkin Elmer Life Sciences). Concentration-response curves were plotted for the individual compounds and EC50 values estimated using a four-parameter logistic model with Prism v. 4.0 (GraphPad, Carlsbad, Calif.).", "key": {"[1]": {"conditions": "cAMP, membranes with human GLP-1 receptor, mean value, read-out: GLP1cAMPma (3693) [EC50 (nM)] Mean Value"}}, "note": "Read-outs that look alike come from different tables or passages of the source. Starred links: 1 amine or outer side, 2 acyl side, 3 side chain; linkers in the order of their positions; H or OH if unused. Residues, ends and D or L forms follow the SMILES beside them. Groups on a side chain read outwards from the residue. *: point of attachment. γGlu = O=C(O)[C@H](CCC(=O)[*:2])N[*:1]; Stearoyl = CCCCCCCCCCCCCCCCCC(=O)*; Palmitoyl = CCCCCCCCCCCCCCCC(=O)*; AEEA = NCCOCCOCC(=O)O"}
{"smiles": "CCCCCCCCCCCCCCCCCC(=O)NCCOCCOCC(=O)NCCOCCOCC(=O)NCCOCCOCC(=O)NCCCC[C@H](NC(=O)[C@@H]1CCCN1C(=O)CNC(=O)CNC(=O)[C@H](CCCNC(=N)N)NC(=O)[C@@H](NC(=O)[C@H](CC(C)C)NC(=O)[C@H](Cc1c[nH]c2ccccc12)NC(=O)[C@H](CCC(=O)O)NC(=O)[C@@H](NC(=O)[C@H](Cc1ccccc1)NC(=O)[C@H](CC(C)C)NC(=O)[C@H](CCCNC(=N)N)NC(=O)[C@@H](NC(=O)[C@H](C)NC(=O)[C@H](CCC(=O)O)NC(=O)[C@H](CCC(=O)O)NC(=O)[C@H](CCC(=O)O)NC(=O)[C@H](CC(C)C)NC(=O)[C@H](CCC(N)=O)NC(=O)[C@H](CCCNC(=N)N)NC(=O)[C@H](CO)NC(=O)[C@H](CC(C)C)NC(=O)[C@H](CC(=O)O)NC(=O)[C@H](CO)NC(=O)[C@@H](NC(=O)[C@H](Cc1ccccc1)NC(=O)[C@@H](NC(=O)CNC(=O)[C@H](CCC(=O)O)NC(=O)CNC(=O)[C@@H](N)Cc1c[nH]cn1)[C@@H](C)O)[C@@H](C)O)C(C)C)[C@@H](C)CC)C(C)C)C(=O)N[C@@H](CO)C(=O)NCC(=O)N[C@@H](C)C(=O)N1CCC[C@H]1C(=O)N1CCC[C@H]1C(=O)N1CCC[C@H]1C(=O)N[C@@H](CO)C(N)=O", "note": "[Example 2] (H-HGEGTFTSDLSRQLEEEAVRLFIEWLVRGGPK([AEEA-AEEA-AEEA-Stearoyl])SGAPPPS-NH2)", "values": [{"measurement": "EC50", "result": 0.027, "unit": "nM"}]}
{"smiles": "CCCCCCCCCCCCCCCCCC(=O)NCCOCCOCC(=O)NCCOCCOCC(=O)NCCOCCOCC(=O)NCCCC[C@H](NC(=O)[C@@H](NC(=O)[C@H](CC(C)C)NC(=O)[C@H](Cc1c[nH]c2ccccc12)NC(=O)[C@H](CCC(=O)O)NC(=O)[C@@H](NC(=O)[C@H](Cc1ccccc1)NC(=O)[C@H](CC(C)C)NC(=O)[C@H](CCCNC(=N)N)NC(=O)[C@@H](NC(=O)[C@H](C)NC(=O)[C@H](CCC(=O)O)NC(=O)[C@H](CCC(=O)O)NC(=O)[C@H](CCC(=O)O)NC(=O)[C@H](CC(C)C)NC(=O)[C@H](CCC(N)=O)NC(=O)[C@H](CCCNC(=N)N)NC(=O)[C@H](CO)NC(=O)[C@H](CC(C)C)NC(=O)[C@H](CC(=O)O)NC(=O)[C@H](CO)NC(=O)[C@@H](NC(=O)[C@H](Cc1ccccc1)NC(=O)[C@@H](NC(=O)CNC(=O)[C@H](CCC(=O)O)NC(=O)CNC(=O)[C@@H](N)Cc1c[nH]cn1)[C@@H](C)O)[C@@H](C)O)C(C)C)[C@@H](C)CC)C(C)C)C(=O)NCC(=O)NCC(=O)N1CCC[C@H]1C(=O)N[C@@H](CO)C(=O)N[C@@H](CO)C(=O)NCC(=O)N[C@@H](C)C(=O)N1CCC[C@H]1C(=O)N1CCC[C@H]1C(=O)N1CCC[C@H]1C(=O)N[C@@H](CO)C(N)=O", "note": "[Example 3, N-ε^28-(2-(2-(2-(2-(2-(2-(2-(2-(2-(Octadecanoylamino)ethoxy)ethoxy)acetylamino)ethoxy)ethoxy)acetyl-amino)ethoxy)ethoxy)acetyl))[Arg^12,Leu^14,Val^27,Lys^28 Exendin-4(1-39)amide] (H-HGEGTFTSDLSRQLEEEAVRLFIEWLVK([AEEA-AEEA-AEEA-Stearoyl])GGPSSGAPPPS-NH2; N-terminus assumed)", "values": [{"measurement": "EC50", "result": 0.025, "unit": "nM"}]}
{"smiles": "CCCCCCCCCCCCCCCC(=O)N[C@@H](CCC(=O)NCCOCCOCC(=O)NCCOCCOCC(=O)NCCCC[C@H](NC(=O)[C@@H](NC(=O)[C@H](C)NC(=O)[C@H](CCC(=O)O)NC(=O)[C@H](CCC(=O)O)NC(=O)[C@H](CCC(=O)O)NC(=O)[C@H](CC(C)C)NC(=O)[C@H](CCC(N)=O)NC(=O)[C@H](CCCNC(=N)N)NC(=O)[C@H](CO)NC(=O)[C@H](CC(C)C)NC(=O)[C@H](CC(=O)O)NC(=O)[C@H](CO)NC(=O)[C@@H](NC(=O)[C@H](Cc1ccccc1)NC(=O)[C@@H](NC(=O)CNC(=O)[C@H](CCC(=O)O)NC(=O)CNC(=O)[C@@H](N)Cc1c[nH]cn1)[C@@H](C)O)[C@@H](C)O)C(C)C)C(=O)N[C@@H](CC(C)C)C(=O)N[C@@H](Cc1ccccc1)C(=O)N[C@H](C(=O)N[C@@H](CCC(=O)O)C(=O)N[C@@H](Cc1c[nH]c2ccccc12)C(=O)N[C@@H](CC(C)C)C(=O)N[C@@H](CCCNC(=N)N)C(=O)N[C@@H](CCCNC(=N)N)C(=O)NCC(=O)NCC(=O)N1CCC[C@H]1C(=O)N[C@@H](CO)C(=O)N[C@@H](CO)C(=O)NCC(=O)N[C@@H](C)C(=O)N1CCC[C@H]1C(=O)N1CCC[C@H]1C(=O)N1CCC[C@H]1C(=O)N[C@@H](CO)C(N)=O)[C@@H](C)CC)C(=O)O", "note": "[Example 4, N-ε^20-[2-(2-[2-(2-[2-(2-[4-hexadecanoylamino-4(S)-carboxybutyrylamino]ethoxy)ethoxy]acetylamino)ethoxy]ethoxy)acetyl] [Arg^12,27,28,Leu^14,Lys^20]Exendin-4(1-39)amide] (H-HGEGTFTSDLSRQLEEEAVK([AEEA-AEEA-γGlu-Palmitoyl])LFIEWLRRGGPSSGAPPPS-NH2; N-terminus assumed)", "values": [{"measurement": "EC50", "setting": "[1]", "result": 0.027, "unit": "nM"}]}
{"smiles": "CCCCCCCCCCCCCCCC(=O)N[C@@H](CCC(=O)NCCOCCOCC(=O)NCCOCCOCC(=O)NCCCC[C@H](NC(=O)[C@H](CO)NC(=O)[C@H](CO)NC(=O)[C@@H]1CCCN1C(=O)CNC(=O)CNC(=O)[C@H](CC(N)=O)NC(=O)[C@H](CCCNC(=N)N)NC(=O)[C@H](CC(C)C)NC(=O)[C@H](Cc1c[nH]c2ccccc12)NC(=O)[C@H](CCC(=O)O)NC(=O)[C@@H](NC(=O)[C@H](Cc1ccccc1)NC(=O)[C@H](CC(C)C)NC(=O)[C@H](CCCNC(=N)N)NC(=O)[C@@H](NC(=O)[C@H](C)NC(=O)[C@H](CCC(=O)O)NC(=O)[C@H](CCC(=O)O)NC(=O)[C@H](CCC(=O)O)NC(=O)[C@H](CC(C)C)NC(=O)[C@H](CCC(N)=O)NC(=O)[C@H](CCCNC(=N)N)NC(=O)[C@H](CO)NC(=O)[C@H](CC(C)C)NC(=O)[C@H](CC(=O)O)NC(=O)[C@H](CO)NC(=O)[C@@H](NC(=O)[C@H](Cc1ccccc1)NC(=O)[C@@H](NC(=O)CNC(=O)[C@H](CCC(=O)O)NC(=O)CNC(=O)[C@@H](N)Cc1c[nH]cn1)[C@@H](C)O)[C@@H](C)O)C(C)C)[C@@H](C)CC)C(=O)N[C@@H](C)C(=O)N1CCC[C@H]1C(=O)N1CCC[C@H]1C(=O)N1CCC[C@H]1C(=O)N[C@@H](CO)C(N)=O)C(=O)O", "note": "[Example 6, N-ε^34-[2-(2-[2-(2-[2-(2-[4-hexadecanoylamino-4(S)-carboxybutyrylamino]ethoxy)ethoxy]acetylamino)ethoxy]ethoxy)acetyl] [Arg^12,27,Leu^14,Lys^34]Exendin-4(1-39)amide] (H-HGEGTFTSDLSRQLEEEAVRLFIEWLRNGGPSSK([AEEA-AEEA-γGlu-Palmitoyl])APPPS-NH2; N-terminus assumed)", "values": [{"measurement": "EC50", "setting": "[1]", "result": 0.018, "unit": "nM"}]}
{"smiles": "CCCCCCCCCCCCCCCC(=O)N[C@@H](CCC(=O)NCCOCCOCC(=O)NCCCC[C@H](NC(=O)[C@H](CO)NC(=O)[C@H](CO)NC(=O)[C@@H]1CCCN1C(=O)CNC(=O)CNC(=O)[C@H](CC(N)=O)NC(=O)[C@H](CCCNC(=N)N)NC(=O)[C@H](CC(C)C)NC(=O)[C@H](Cc1c[nH]c2ccccc12)NC(=O)[C@H](CCC(=O)O)NC(=O)[C@@H](NC(=O)[C@H](Cc1ccccc1)NC(=O)[C@H](CC(C)C)NC(=O)[C@H](CCCNC(=N)N)NC(=O)[C@@H](NC(=O)[C@H](C)NC(=O)[C@H](CCC(=O)O)NC(=O)[C@H](CCC(=O)O)NC(=O)[C@H](CCC(=O)O)NC(=O)[C@H](CC(C)C)NC(=O)[C@H](CCC(N)=O)NC(=O)[C@H](CCCNC(=N)N)NC(=O)[C@H](CO)NC(=O)[C@H](CC(C)C)NC(=O)[C@H](CC(=O)O)NC(=O)[C@H](CO)NC(=O)[C@@H](NC(=O)[C@H](Cc1ccccc1)NC(=O)[C@@H](NC(=O)CNC(=O)[C@H](CCC(=O)O)NC(=O)CNC(=O)[C@@H](N)Cc1c[nH]cn1)[C@@H](C)O)[C@@H](C)O)C(C)C)[C@@H](C)CC)C(=O)N[C@@H](C)C(=O)N1CCC[C@H]1C(=O)N1CCC[C@H]1C(=O)N1CCC[C@H]1C(=O)N[C@@H](CO)C(N)=O)C(=O)O", "note": "[Example 7, N-ε^34-[2-(2-[2-[4-hexadecanoylamino-4(S)-carboxybutyrylamino]ethoxy]ethoxy)acetyl][Arg^12,27,Leu^14,Lys^34] Exendin-4(1-39)amide] (H-HGEGTFTSDLSRQLEEEAVRLFIEWLRNGGPSSK([AEEA-γGlu-Palmitoyl])APPPS-NH2)", "values": [{"measurement": "EC50", "result": 0.012, "unit": "nM"}]}
